Laboratory results as given in patent publication US12012404B2, “Pyrimidoheterocyclic compounds and application thereof” (D3 BIO (WUXI) CO., LTD., priority 2020, dated 2024).
pIC50: −log10 of the molar value. Structures can show the parent of a compound that is named as a salt.

What was measured:
[1] = system: KRAS^G12C-mutated H358 cells; experiment: H358 cell assay: inhibition of proliferation (CellTiter-Glo, 5 days); assay type: cell-based; details: NCI-H358 cells, 5 days incubation
Method: Compounds were assayed for IC50 of inhibition of proliferation of KRAS^G12C-mutated H358 cells.
The main instrument used in this assay was a Nivo multi-label analyzer (PerkinElmer).
2.4 Method of the Assay: • 1) NCI-H358 cells were inoculated in a white 96-well plate, and each well contained 80 μL of cell suspension and 4000 NCI-H358 cells. […] The assay was carried out in duplicate. 78 μL of medium was added to the intermediate plate, and then 2 μL of the serially diluted compound was transferred to each well of the intermediate plate according to the corresponding position. After mixing well, 20 μL per well was transferred to the cell plate. […] The cell plate was incubated in a carbon dioxide incubator for 5 days. Another cell plate was prepared, and the signal value of the cell plate was read on the day of compound addition as the maximum value (Max value in the equation below) to participate in data analysis. 25 μL of cell viability chemiluminescence detection reagent was added to each well of the cell plate, and the plate was incubated at room temperature for 10 minutes to stabilize the luminescence signal. A multi-label analyzer was used for reading the plate. • 3) […]

[2] = system: KRAS^G12C-mutated MIA-PA-CA-2 cells; experiment: Inhibition of proliferation of KRAS^G12C-mutated MIA-PA-CA-2 cells (CellTiter-Glo, 72 h); assay type: cell-based, human
Method: Compounds were assayed for IC50 of inhibition of proliferation of KRAS^G12C-mutated MIA-PA-CA-2 cells.
The main reagent used in this assay included CellTiter-Glo (Promega, Cat. No. G7573).
The main instrument used in this assay was PerkinElmer EnVision multi-function microplate reader.
1.4 Method of the Assay • 1) Adherent cells were digested with trypsin to form a cell suspension, and the cell suspension was counted for later use. • 2) An appropriate amount of cells was added into a centrifuge tube, and a cell culture medium was added to make up the required volume; then the cells were plated to a 96-well plate at a final density of 2000 cells/well, 100 μL of culture medium. • 3) After incubating for 24 hr, the compound was formulated to 10 mM with DMSO, and serially diluted 3-fold with DPBS (Dulbecco's Phosphate Buffered Saline) to 9 points; 10 μL was added to each well in duplicate. 10 μL of DPBS per well was added to the assay control wells (Con). • 4) On the same day, 50 μL of CellTiter Glo was added to another cell culture plate without compounds, and the fluorescence value was read by EnVision. […] The fluorescence value was read by EnVision. • 6) Data analysis: The inhibition rate of cells in each well was calculated according to the following equation: […]

pIC50 [1] | pIC50 ([1]; Homo sapiens, 120 h) | pIC50 ([2]; Homo sapiens, MIA PaCa-2, 72 h incubation) | SMILES | pIC50 ([2]; 72 h incubation)
7.57 |  |  | C=CC(=O)N1CCN(c2nc(OCC3CCCN3C)nc3c2CNC(c2c(Cl)c(C)cc4[nH]ncc24)C3)CC1CC#N (single isomer, unassigned) [4B hydrochloride] | 
> 8.34 |  |  | C=C(F)C(=O)N1CCN(c2nc(OCC3CCCN3C)nc3c2COC(c2c(F)c(N)cc(C)c2C(F)(F)F)C3)CC1CC#N (single isomer, unassigned) [8B hydrochloride] | 8.57
7.89 |  |  | C=CC(=O)N1CCN(c2nc(OCC3CCCN3C)nc3c2COC(c2c(Cl)c(C)cc4[nH]ncc24)C3)CC1CC#N (single isomer, unassigned) [Compound 5B] | 
> 8.34 |  |  | C=CC(=O)N1CCN(c2nc(OCC3CCCN3C)nc3c2CN(C)C(c2c(Cl)c(C)cc4[nH]ncc24)C3)CC1CC#N (single isomer, unassigned) [Compound 6A] | 
7.17 |  |  | C=CC(=O)N1CCN(c2nc(OC[C@@H]3CCCN3C)nc3c2CN(C)C(c2cccc4ccccc24)C3)C[C@@H]1CC#N (some centres unmarked) [Compound 1] | 8.28
7.72 |  |  | C=CC(=O)N1CCN(c2nc(OC[C@@H]3CCCN3C)nc3c2COC(c2cccc4cccc(Cl)c24)C3)C[C@@H]1CC#N (some centres unmarked) [Compound 2] | 
 | 7.15 |  | C=CC(=O)N1CCN(c2nc(OC[C@@H]3CCCN3C)nc3c2COC(c2c(F)c(N)cc(C)c2C(F)(F)F)C3)C[C@@H]1C (some centres unmarked) [Compound 10] | 
 | 7.49 |  | C=CC(=O)N1CCN(c2nc(OC[C@@H]3CCCN3C)nc3c2COC(c2c(F)c(N)cc(C)c2C(F)(F)F)C3)[C@H](C)C1 (some centres unmarked) [Compound 13] | 
 | 8.04 |  | C=CC(=O)N1CCN(c2nc(OC[C@@H]3CCCN3C)nc3c2COC(c2c(F)c(N)cc(C)c2C(F)(F)F)C3)C[C@H]1C (some centres unmarked) [Compound 15] | 
 | 8.77 | 8.65 | C=C(F)C(=O)N1CCN(c2nc(OCC34CCCN3CCC4)nc3c2COC(c2c(F)c(N)cc(C)c2C(F)(F)F)C3)C[C@@H]1CC#N (some centres unmarked) [Compound 16] | 

SMILES | pIC50 [1] | pIC50 ([1]; Homo sapiens, 120 h) | pIC50 ([2]; Homo sapiens, MIA PaCa-2, 72 h incubation) | pIC50 ([2]; 72 h incubation)
C=CC(=O)N1CCN(c2nc(OCC3CC(F)CN3C)nc3c2COC(c2c(F)c(N)cc(C)c2C(F)(F)F)C3)C(C)C1 (single isomer, unassigned) [Compound 9B] | 8.26 |  |  | 8.16
C=CC(=O)N1CCN(c2nc(OCC3CCCN3C)nc3c2COC(c2c(F)c(N)cc(C)c2C(F)(F)F)C3)C(C)C1 (single isomer, unassigned) [Compound 18B] | 8.33 |  |  | 8.48
C=CC(=O)N1C[C@H](C)N(c2nc(OC[C@@H]3CCCN3C)nc3c2COC(c2c(F)c(N)cc(C)c2C(F)(F)F)C3)C[C@H]1C (some centres unmarked) [Compound 11] | 8.17 |  |  | 
C=CC(=O)N1CCN(c2nc(OCC34CCCN3CCC4)nc3c2COC(c2c(F)c(N)cc(C)c2C(F)(F)F)C3)C(C)C1 (centres unmarked) [Compound 12] | 8.60 |  |  | 8.89
